This is an account of results in patent publication EP4279069A1, “A PHARMACEUTICAL COMPOSITION FOR USE IN PREVENTING AND/OR REDUCING HEPATOTOXICITY INDUCED BY ACETAMINOPHEN” (priority 2022, dated 2023).

As usually defined, the half-life is how long it takes for the measured level to halve.

The structures appear in SMILES notation. Several values for one entry are separate records, joined by “and”; a condition that tells them apart may be missing. Equal values may be shown once. Where only a bound is given, the exact number is not on record here.

For data set [1] the following is noted: median value; cited from earlier work.
For another data set, the system named is rats. Nature of the data set: Toxicology of acetaminophen and/or nefopam: ALAT and ASAT by UV test according to IFCC recommendations. To be noted: for ALAT / ASAT: after 4 weeks, mean, groups 2, 3, 5: P 505 for 4 days then 645 for 24 days and/or N 30 for 4 days then 38.6 for 24 days (mg/kg/day); for transaminase levels: rats, substance alone, after 4 weeks of treatment, statement in text. How it is done: Liver function in rats is measured and the progression of liver damage is monitored to screen for liver disease in invasive and non-invasive manner. Alanine aminotransferase (ALAT) and aspartate aminotransferase (ASAT), two markers of hepatotoxicity was assayed using UV test according to IFCC recommendations.
Control animals (group 1) received the vehicle only (1% Tween 80 in 0.5% Methylcellulose in water).

For data set [2] the following is noted: cited from earlier work.
Data set [3] deals with acetaminophen-induced acute liver injury. Briefly: Assessment of acute hepatotoxicity: histopathological assessment of liver lesions (H&E, necrosis grade). Type of data set: in vivo, mice CD-1. How it is done:
They received the products intraperitoneally (i.p.).
Histopathological assessment of liver lesions: The histopathological lesions in the liver were evaluated as follows: The collected tissues were processed with standard procedures and embedded in paraffin. The embedded tissues were sectioned into 4 µm thick sections using a microtome. These tissue sections were stained with hematoxylin and eosin (H&E) according to standard techniques and examined by a light microscope.
The severity of necrotic lesions in liver parenchyma was determined. Grade 0: No pathological change Grade 1: Presence of degenerated hepatocytes with only rare foci of necrosis Grade 2: Small area of mild centrilobular necrosis around the central vein Grade 3: Area of mild centrilobular necrosis severer than Grade 2 Grade 4: Centrilobular necrosis severer than Grade 3
(§1) Protocol: 24h after treatments, animals were euthanized. Plasma and liver were sampled.

Data set [4] has the same test system. Briefly: Assessment of acute hepatotoxicity: serum biomarkers of liver injury (ALAT, ASAT), spectrophotometric assay. As to conditions: for ALAT / ASAT: i.p., 24h after treatment, individual mice. How it is done: 192 male mice CD-1 (Janvier, France) (12 mice per group) with an age of 7-10 weeks were used. They received the products intraperitoneally (i.p.).
Determination of serum biomarkers: Liver injury was evaluated by measuring the serum levels of alanine aminotransferase (ALAT), and aspartate aminotransferase (ASAT) using a spectrophotometric assay method.
as §1
Statistical analysis: Results were expressed as means ± standard error of mean (S.E.M.).

Where [5] appears, read: nefopam at doses of 17.65 and 35.29 mg/kg (i.p.) co-administered with acetaminophen, mice.
Where [6] appears, read: Vehicle + 1.1 mg/kg nefopam, 1.1 mg/kg.
[7] abbreviates: Vehicle + 2.2 mg/kg nefopam, 2.2 mg/kg.
The mark [8] stands for this setting: Vehicle + 4.4 mg/kg nefopam, 4.4 mg/kg.
The mark [9] stands for this setting: Vehicle + 200 mg/kg NAC, 200 mg/kg.

Regarding `CC(=O)Nc1ccc(O)cc1` [Acetaminophen, N-acetyl-p-aminophenol], in data set [1], the “median effective analgesic dose” value is given as 500 mg. The figures for the ALAT in the data set on rats (female rats) and with rats (male rats) were 49 U/L and 59 U/L, respectively. Also, the ASAT in the data set on rats (female rats) was found to be 101 U/L; in the data set with rats (male rats) it was 110 U/L. The results for the transaminase levels entry in the data set with rats and in the data set with rats (listed as acetaminophen) were “increases transaminase levels” and “increase in transaminase levels”, respectively. In addition, in data set [2] (individuals without liver injury), the half-life is 2 to 3 h. Besides, the “bioavailability (drug being absorbed)” value in data set [2] (taken orally) is around 80%. Besides, the “metabolized through the activity of CYPs (primarily CYP2E) to N-acetyl-p-benzoquinoneimine (NAPQI)” value in data set [2] (therapeutic doses) is listed as at most 5%.

In the case of `CN1CCOC(c2ccccc2)c2ccccc2C1` (stereo not shown) [nefopam, 5-methyl-1-phenyl-1,3,4,6-tetrahydro-2,5-benzoxazo-cine], the histological score in data set [3] (mouse, in vivo) is listed as 0; in data set [3] (setting [5]) it was “significantly reduced”. The ALAT was 31 U/L in the data set on rats (female rats); 35 U/L with rats (male rats); 17 U/L and 29 U/L and 55 U/L (2×) and 51 U/L and 23 U/L and 31 U/L and 45 U/L and 19 U/L and 49 U/L and 27 U/L and 28 U/L in data set [4] (setting [6]); 30 U/L (2×) and 19 U/L (2×) and 52 U/L and 152 U/L and 24 U/L and 27 U/L and 35 U/L and 60 U/L and 57 U/L and 25 U/L in data set [4] (setting [7]); 55 U/L and 25 U/L and 22 U/L and 43 U/L (2×) and 51 U/L and 26 U/L and 28 U/L and 42 U/L and 24 U/L and 71 U/L and 23 U/L in data set [4] (setting [8]). The ASAT in the data set on rats (female rats) is 96 U/L; with rats (male rats) it was 83 U/L; in data set [4] (setting [6]) it was 98 U/L and 266 U/L and 180 U/L and 152 U/L and 193 U/L and 181 U/L and 136 U/L and 426 U/L and 110 U/L and 97 U/L and 210 U/L; in data set [4] (setting [7]) it was 111 U/L and 395 U/L and 59 U/L and 325 U/L and 119 U/L and 118 U/L and 221 U/L and 129 U/L and 269 U/L and 785 U/L and 148 U/L; in data set [4] (setting [8]), 541 U/L and 128 U/L and 111 U/L and 93 U/L and 151 U/L and 79 U/L and 89 U/L and 531 U/L and 71 U/L and 466 U/L. The acetaminophen-induced hepatotoxicity result in data set [4] (co-administered with acetaminophen 300 mg/kg i.p., mice) is “able to abolish acetaminophen-induced hepatotoxicity”. Moreover, in data set [4] (mouse, in vivo), the “ASAT and ALAT plasma concentration” value is listed as “did not influence”. In data set [4] (setting [5]), the “ASAT and ALAT elevations” value is “significantly reduced”.

`CC(=O)N[C@@H](CS)C(=O)O` [NAC, N-acetylcysteine]: the Score in data set [3] (Vehicle + 200 mg/kg NAC, i.p., 24h after treatment, individual mice) came to 0. In data set [4] (setting [9]), the ALAT is 41 U/L (2×) and 26 U/L and 27 U/L and 30 U/L and 58 U/L and 31 U/L and 28 U/L and 14 U/L and 29 U/L and 71 U/L and 51 U/L; the ASAT was 292 U/L and 101 U/L and 114 U/L and 184 U/L and 320 U/L and 160 U/L and 360 U/L and 107 U/L and 283 U/L and 723 U/L and 170 U/L and 183 U/L.
